Earlier results as cited in paper PMC6784055 (Toxins, 2019).

System: rat brain sodium channel
Conditions: relative to PbTx1

Structure (SMILES): C[C@@H]1C[C@@H]2O[C@@H]3[C@@H](C)[C@H](O)[C@@H]4O[C@]5(C[C@H](O)CO5)[C@@H](C)[C@H](C)[C@H]4O[C@H]3C[C@H]2O[C@H]2C[C@H]3O[C@H]4C/C=C\C[C@H]5O[C@H]6C=C[C@H]7O[C@H]8[C@H](O)[C@H]9O[C@@H](/C=C/[C@H](O)CO)C=CC[C@@H]9O[C@@H]8C[C@@H]7O[C@@H]6C=C[C@@H]5O[C@@H]4C[C@@H](O)[C@]3(C)O[C@@H]2C1 [ciguatoxin-1B]
- binding affinity stronger than that of PbTx1: 50 fold
